{"source": "ChEMBL document CHEMBL5291721", "about": "“A preclinical secondary pharmacology resource illuminates target-adverse drug reaction associations of marketed drugs” (Nat Commun, 2023); note: assay procedure not described here", "key": {"[1]": {"molecular_target": "T1, Androgen receptor (Homo sapiens, UniProt P10275)", "T1 sequence (P10275 whole entry)": "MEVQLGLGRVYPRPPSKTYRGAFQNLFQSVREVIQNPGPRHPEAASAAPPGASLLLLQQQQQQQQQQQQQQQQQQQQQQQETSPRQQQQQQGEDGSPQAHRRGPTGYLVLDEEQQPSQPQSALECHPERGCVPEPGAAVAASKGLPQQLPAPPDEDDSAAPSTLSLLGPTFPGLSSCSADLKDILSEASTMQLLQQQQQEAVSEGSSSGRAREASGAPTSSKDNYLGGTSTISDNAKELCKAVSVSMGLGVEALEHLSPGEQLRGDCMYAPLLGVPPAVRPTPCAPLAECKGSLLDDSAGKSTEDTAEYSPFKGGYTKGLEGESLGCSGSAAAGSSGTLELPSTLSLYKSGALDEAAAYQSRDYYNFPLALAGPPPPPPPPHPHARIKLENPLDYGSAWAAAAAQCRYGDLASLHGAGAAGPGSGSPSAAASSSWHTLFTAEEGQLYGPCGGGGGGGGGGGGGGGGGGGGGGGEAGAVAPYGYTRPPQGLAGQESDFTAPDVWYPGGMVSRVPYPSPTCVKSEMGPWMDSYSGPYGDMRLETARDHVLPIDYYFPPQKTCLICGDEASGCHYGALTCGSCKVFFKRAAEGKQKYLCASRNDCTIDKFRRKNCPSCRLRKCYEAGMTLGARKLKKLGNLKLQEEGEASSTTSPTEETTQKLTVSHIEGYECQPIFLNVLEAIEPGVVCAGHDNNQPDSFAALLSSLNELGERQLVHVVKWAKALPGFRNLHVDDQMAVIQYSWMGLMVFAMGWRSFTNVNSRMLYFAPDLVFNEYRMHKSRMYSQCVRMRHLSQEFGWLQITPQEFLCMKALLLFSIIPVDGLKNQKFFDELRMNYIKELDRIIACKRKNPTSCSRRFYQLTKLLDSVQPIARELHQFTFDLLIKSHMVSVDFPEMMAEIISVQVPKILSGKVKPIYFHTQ"}, "[2]": {"molecular_target": "Gamma-aminobutyric acid receptor subunit alpha-1/alpha-2/beta-2/gamma-2 (Homo sapiens, UniProt P14867+P18507+P47869+P47870)", "sequence (P14867 whole entry)": "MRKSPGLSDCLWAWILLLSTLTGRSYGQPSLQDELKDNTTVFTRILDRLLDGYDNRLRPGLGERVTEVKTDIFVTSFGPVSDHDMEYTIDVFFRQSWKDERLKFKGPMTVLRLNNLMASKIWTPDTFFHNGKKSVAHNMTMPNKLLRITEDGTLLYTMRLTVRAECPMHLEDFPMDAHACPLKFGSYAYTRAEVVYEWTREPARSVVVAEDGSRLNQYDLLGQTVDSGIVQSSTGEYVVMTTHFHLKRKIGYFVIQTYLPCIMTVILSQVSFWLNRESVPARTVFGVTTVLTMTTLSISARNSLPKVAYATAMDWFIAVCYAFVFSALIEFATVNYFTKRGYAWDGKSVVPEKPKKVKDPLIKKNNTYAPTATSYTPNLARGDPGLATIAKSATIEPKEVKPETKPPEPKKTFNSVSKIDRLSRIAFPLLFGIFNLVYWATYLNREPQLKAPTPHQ", "sequence (P47870 whole entry)": "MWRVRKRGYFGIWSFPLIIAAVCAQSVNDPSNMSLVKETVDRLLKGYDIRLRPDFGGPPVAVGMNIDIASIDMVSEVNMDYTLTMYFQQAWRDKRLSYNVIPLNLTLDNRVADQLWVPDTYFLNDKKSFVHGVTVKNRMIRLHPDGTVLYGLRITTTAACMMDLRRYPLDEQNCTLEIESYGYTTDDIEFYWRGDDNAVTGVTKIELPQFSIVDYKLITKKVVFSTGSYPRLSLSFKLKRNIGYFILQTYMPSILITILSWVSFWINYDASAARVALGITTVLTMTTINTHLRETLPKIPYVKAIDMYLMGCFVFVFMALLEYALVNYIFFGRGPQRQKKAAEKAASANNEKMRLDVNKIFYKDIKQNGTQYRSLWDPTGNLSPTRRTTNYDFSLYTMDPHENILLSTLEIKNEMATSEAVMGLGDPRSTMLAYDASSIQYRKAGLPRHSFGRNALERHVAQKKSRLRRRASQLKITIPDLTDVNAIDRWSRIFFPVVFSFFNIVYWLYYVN", "sequence (P18507 whole entry)": "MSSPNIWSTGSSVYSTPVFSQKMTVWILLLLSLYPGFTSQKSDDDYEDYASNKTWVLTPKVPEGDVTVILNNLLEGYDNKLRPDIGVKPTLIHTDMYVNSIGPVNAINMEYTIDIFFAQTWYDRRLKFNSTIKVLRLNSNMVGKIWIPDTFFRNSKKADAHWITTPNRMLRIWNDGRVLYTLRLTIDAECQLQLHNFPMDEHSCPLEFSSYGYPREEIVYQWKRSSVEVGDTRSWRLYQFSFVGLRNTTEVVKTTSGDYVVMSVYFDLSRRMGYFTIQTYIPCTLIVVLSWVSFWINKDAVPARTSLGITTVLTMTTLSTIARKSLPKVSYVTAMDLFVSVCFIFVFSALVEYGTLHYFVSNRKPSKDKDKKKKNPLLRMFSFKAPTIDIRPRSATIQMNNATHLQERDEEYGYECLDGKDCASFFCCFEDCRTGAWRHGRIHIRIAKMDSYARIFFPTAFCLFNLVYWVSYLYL", "sequence (P47869 whole entry)": "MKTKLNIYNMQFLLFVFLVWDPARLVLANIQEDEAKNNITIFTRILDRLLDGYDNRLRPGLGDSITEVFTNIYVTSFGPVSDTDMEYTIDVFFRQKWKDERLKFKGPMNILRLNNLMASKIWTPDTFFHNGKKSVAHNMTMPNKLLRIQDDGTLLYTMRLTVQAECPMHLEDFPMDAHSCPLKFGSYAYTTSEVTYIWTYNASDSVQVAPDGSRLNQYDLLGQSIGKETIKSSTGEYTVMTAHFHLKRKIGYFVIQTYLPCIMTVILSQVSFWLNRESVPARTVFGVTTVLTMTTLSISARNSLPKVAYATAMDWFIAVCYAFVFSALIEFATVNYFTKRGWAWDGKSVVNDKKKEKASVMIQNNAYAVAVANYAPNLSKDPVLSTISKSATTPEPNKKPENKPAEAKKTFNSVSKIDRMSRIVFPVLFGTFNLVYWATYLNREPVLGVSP", "type": "protein-complex assay"}, "[3]": {"molecular_target": "Gamma-aminobutyric acid receptor subunit alpha-1 (Rattus norvegicus, UniProt P62813)"}, "[4]": {"molecular_target": "Histamine H3 receptor (Homo sapiens, UniProt Q9Y5N1)"}, "[5]": {"molecular_target": "5-hydroxytryptamine receptor 2B (Homo sapiens, UniProt P41595)", "sequence (P41595 whole entry)": "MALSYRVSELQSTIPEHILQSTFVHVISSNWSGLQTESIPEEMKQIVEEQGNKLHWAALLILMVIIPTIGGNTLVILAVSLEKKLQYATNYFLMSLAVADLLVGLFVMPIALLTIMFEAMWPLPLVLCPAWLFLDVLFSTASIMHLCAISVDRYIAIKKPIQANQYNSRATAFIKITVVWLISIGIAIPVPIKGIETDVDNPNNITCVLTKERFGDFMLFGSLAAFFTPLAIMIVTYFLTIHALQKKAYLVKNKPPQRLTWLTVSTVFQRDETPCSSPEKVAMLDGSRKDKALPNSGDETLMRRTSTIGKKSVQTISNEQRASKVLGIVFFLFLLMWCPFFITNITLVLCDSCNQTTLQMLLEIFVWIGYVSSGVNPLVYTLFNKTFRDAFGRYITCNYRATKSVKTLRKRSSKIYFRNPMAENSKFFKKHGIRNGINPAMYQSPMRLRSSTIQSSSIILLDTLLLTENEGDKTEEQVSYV", "type": "functional, cell-based"}, "[6]": {"molecular_target": "Voltage-gated inwardly rectifying potassium channel KCNH2 (Homo sapiens, UniProt Q12809)", "sequence (Q12809 whole entry)": "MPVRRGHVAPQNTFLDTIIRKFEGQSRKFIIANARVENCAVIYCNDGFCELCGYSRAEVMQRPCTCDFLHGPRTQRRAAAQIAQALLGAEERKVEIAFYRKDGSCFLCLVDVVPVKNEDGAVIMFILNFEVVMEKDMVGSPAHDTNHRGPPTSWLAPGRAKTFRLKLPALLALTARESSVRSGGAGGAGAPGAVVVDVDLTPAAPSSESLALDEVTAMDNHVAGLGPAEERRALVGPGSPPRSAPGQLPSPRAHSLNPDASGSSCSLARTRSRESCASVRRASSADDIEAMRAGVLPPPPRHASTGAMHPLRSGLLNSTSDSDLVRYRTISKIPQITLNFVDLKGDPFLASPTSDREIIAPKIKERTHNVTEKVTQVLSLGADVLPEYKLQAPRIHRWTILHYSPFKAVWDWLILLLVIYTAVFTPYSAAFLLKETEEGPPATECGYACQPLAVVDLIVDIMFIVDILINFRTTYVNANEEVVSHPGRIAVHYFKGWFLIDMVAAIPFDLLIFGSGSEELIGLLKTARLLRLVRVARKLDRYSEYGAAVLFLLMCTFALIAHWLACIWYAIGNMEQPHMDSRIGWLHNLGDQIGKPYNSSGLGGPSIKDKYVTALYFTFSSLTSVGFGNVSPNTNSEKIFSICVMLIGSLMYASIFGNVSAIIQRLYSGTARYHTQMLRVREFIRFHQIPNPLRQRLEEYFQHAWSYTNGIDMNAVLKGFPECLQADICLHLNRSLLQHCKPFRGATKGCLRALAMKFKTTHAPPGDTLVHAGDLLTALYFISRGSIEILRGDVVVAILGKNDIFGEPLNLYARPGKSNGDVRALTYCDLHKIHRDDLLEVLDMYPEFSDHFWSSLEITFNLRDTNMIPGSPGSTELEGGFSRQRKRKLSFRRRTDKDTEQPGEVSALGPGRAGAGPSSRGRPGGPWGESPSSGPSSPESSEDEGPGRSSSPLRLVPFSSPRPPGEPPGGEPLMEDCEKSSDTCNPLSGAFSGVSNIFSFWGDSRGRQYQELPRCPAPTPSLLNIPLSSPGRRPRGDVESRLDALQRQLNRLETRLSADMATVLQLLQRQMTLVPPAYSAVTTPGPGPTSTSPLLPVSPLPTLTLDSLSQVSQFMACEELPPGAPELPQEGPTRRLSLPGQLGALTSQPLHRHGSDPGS", "type": "functional", "settings": "read-out: AC50"}, "[7]": {"molecular_target": "Vascular endothelial growth factor receptor 2 (Homo sapiens, UniProt P35968)", "type": "functional"}, "[8]": {"molecular_target": "cGMP-inhibited 3',5'-cyclic phosphodiesterase 3A (Homo sapiens, UniProt Q14432)", "sequence (Q14432 whole entry)": "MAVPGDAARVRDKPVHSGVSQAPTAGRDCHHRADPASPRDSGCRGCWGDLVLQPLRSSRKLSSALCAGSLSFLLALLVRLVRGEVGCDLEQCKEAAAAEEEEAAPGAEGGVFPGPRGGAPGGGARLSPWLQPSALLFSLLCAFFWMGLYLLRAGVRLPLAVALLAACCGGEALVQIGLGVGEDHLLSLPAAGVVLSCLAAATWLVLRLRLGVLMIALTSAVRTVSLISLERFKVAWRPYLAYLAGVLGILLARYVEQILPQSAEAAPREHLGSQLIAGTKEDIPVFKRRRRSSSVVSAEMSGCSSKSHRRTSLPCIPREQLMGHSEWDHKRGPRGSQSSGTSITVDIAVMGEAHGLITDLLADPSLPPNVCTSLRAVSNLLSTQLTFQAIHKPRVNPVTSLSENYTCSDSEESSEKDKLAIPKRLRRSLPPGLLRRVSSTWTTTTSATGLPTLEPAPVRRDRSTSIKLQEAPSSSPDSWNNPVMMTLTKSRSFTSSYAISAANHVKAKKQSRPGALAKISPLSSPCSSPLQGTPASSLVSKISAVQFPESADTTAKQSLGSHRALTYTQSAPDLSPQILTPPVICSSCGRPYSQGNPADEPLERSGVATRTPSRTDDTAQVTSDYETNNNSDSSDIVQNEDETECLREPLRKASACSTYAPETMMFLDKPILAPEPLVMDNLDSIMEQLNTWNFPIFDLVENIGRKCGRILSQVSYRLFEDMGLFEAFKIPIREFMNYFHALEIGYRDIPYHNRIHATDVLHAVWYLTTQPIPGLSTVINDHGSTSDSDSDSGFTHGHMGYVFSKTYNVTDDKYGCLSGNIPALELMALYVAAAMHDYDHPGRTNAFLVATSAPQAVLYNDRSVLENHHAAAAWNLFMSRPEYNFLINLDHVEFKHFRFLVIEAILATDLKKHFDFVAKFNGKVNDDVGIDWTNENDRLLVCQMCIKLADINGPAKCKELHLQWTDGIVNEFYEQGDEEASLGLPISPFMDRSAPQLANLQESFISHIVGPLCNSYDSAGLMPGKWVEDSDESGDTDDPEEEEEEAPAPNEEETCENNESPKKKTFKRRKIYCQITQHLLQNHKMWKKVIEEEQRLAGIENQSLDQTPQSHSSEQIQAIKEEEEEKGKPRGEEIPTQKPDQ", "type": "functional"}, "[9]": {"molecular_target": "3',5'-cyclic-AMP phosphodiesterase 4A (Homo sapiens, UniProt P27815)", "type": "functional"}, "[10]": {"molecular_target": "T2, Progesterone receptor (Homo sapiens, UniProt P06401)", "T2 sequence (P06401 whole entry)": "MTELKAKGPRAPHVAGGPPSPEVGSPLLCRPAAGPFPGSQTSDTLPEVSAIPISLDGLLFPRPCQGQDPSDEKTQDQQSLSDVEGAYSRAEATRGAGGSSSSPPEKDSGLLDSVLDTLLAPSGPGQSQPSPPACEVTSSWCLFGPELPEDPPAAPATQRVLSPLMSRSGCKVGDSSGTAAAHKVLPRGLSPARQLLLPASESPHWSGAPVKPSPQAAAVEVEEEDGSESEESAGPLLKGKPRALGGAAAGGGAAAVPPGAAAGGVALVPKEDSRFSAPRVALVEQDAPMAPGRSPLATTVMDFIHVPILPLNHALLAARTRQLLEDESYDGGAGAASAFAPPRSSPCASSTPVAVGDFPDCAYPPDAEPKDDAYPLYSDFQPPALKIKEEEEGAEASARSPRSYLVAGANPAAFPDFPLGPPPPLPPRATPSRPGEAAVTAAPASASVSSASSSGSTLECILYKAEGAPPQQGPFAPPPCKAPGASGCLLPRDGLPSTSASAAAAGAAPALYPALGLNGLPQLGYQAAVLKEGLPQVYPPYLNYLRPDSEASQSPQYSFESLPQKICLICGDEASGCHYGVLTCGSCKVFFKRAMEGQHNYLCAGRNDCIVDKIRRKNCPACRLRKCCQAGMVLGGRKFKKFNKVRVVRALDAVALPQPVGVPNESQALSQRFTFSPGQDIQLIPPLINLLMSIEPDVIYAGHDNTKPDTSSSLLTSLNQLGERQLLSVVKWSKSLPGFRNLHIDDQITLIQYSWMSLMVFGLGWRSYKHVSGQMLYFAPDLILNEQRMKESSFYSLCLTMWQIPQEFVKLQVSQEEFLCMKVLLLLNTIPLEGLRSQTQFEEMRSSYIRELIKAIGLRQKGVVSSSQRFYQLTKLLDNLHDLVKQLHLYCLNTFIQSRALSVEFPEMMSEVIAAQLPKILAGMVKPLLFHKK"}, "[11]": {"molecular_target": "Sodium-dependent noradrenaline transporter (Homo sapiens, UniProt P23975)"}, "[12]": {"molecular_target": "D(3) dopamine receptor (Homo sapiens, UniProt P35462)"}, "[13]": {"molecular_target": "T3, Thromboxane A2 receptor (Homo sapiens, UniProt P21731)", "T3 sequence (P21731 whole entry)": "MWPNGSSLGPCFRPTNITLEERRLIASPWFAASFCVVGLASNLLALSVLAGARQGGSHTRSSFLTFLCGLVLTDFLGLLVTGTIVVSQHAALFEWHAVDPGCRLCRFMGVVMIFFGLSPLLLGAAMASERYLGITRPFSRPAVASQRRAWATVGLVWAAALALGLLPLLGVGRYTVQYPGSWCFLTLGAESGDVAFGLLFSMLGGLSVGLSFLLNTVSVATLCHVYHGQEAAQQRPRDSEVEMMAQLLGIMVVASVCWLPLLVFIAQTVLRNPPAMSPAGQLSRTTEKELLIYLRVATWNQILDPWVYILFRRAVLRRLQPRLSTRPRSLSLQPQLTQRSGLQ"}}}
{"smiles": "CCN1CCCC1CNC(=O)c1cc(S(N)(=O)=O)ccc1OC", "note": "(stereo not drawn) [SULPIRIDE]", "values": [{"measurement": "AC50", "setting": "[1]", "result": "> 30", "unit": "µM"}, {"measurement": "AC50", "setting": "[2]", "result": "> 30", "unit": "µM"}, {"measurement": "AC50", "setting": "[3]", "result": "> 30", "unit": "µM"}, {"measurement": "AC50", "setting": "[4]", "result": "> 30", "unit": "µM"}, {"measurement": "AC50", "setting": "[5]", "result": "> 30", "unit": "µM"}, {"measurement": "AC50", "setting": "[6]", "result": "> 30", "unit": "µM"}, {"measurement": "AC50", "setting": "[7]", "result": "> 30", "unit": "µM"}, {"measurement": "AC50", "setting": "[8]", "result": "> 30", "unit": "µM"}, {"measurement": "AC50", "setting": "[9]", "result": "> 30", "unit": "µM"}, {"measurement": "AC50", "setting": "[10]", "result": "> 30", "unit": "µM"}, {"measurement": "AC50", "setting": "[11]", "result": "> 30", "unit": "µM"}]}
{"smiles": "CCOc1ccccc1OCC1CNCCO1", "note": "(stereo not drawn) [VILOXAZINE]", "values": [{"measurement": "AC50", "setting": "[1]", "result": "> 30", "unit": "µM"}, {"measurement": "AC50", "setting": "[12]", "result": "> 30", "unit": "µM"}, {"measurement": "AC50", "setting": "[2]", "result": "> 30", "unit": "µM"}, {"measurement": "AC50", "setting": "[4]", "result": "> 30", "unit": "µM"}, {"measurement": "AC50", "setting": "[5]", "result": "> 30", "unit": "µM"}, {"measurement": "AC50", "setting": "[6]", "result": "> 30", "unit": "µM"}, {"measurement": "AC50", "setting": "[7]", "result": "> 30", "unit": "µM"}, {"measurement": "AC50", "setting": "[8]", "result": "> 30", "unit": "µM"}, {"measurement": "AC50", "setting": "[9]", "result": "> 30", "unit": "µM"}, {"measurement": "AC50", "setting": "[10]", "result": "> 30", "unit": "µM"}, {"measurement": "AC50", "setting": "[11]", "result": 0.362, "unit": "µM"}, {"measurement": "AC50", "setting": "[13]", "result": "> 30", "unit": "µM"}]}
